According to patent US20030021795A1, “Use of coiled-coil structural scaffold to generate structure-specific peptides” (priority 2000, published 2003):
Like-named read-outs stand apart in the source and are kept apart here. Square brackets hold non-standard residues; d marks the D form. Ends that are not written are not given here. Nle = CCCC[C@H](N)C(=O)O

Tests used:
[1] = Thermal denaturation monitored by [θ]222; type: physicochemical
Source text: The stability of the peptides may be determined by thermal denaturation assays or chemical denaturation assays such as the guanidine chloride denaturation assay. Such assays are known to those skilled in the art. The stability of the peptides may also be indirectly assessed by inhibition ELISA, wherein the ability of a peptide to inhibit the interaction between an antigen and an antibody serves as an indicator of how stable the peptide is in assuming the necessary conformation to compete with the antigen for the antibody.
In order to determine the stability of CVX0270, a thermal denaturation study was undertaken.

[2] = test system: anti-Strep serum; type: binding, mouse
[3] = CD spectroscopy (helical content/conformation of peptides); type: physicochemical; conditions: for conformation by CD in benign buffer: benign buffer (50 mM KH2PO4, 50 mM KCl, pH 7.0), absence of TFE
Description: Circular dichroism (CD) spectroscopy was performed using a Jasco J-500C spectropolarimeter (Jasco, Easton, Md.) equipped with a Jasco DP-500N data processor. A 10-fold dilution of an ˜[…] stock solution of the disulfide-linked peptide was loaded into a 0.02 cm fused silica cell and ellipticity scanned from 190 to 250 nm. […] A Lauda water bath (model RMS, Brinkmann Instruments, Rexdale, Ont.) was used to control the temperature of the cell. CD spectra were the average of four scans obtained by collecting data at 0.1 nm intervals from 250 to 190 nm.

[4] = test system: Streptococcus pneumoniae serotypes (1, 3, and 5); test: Opsonization assay with antiserum; type: cell-based
[5] = test system: Streptococcus pneumoniae serotype 5; type: cell-based; conditions: antiserum Day 49; immunogen dose 20 μg
[6] = test system: Streptococcus pneumoniae serotype 3; type: cell-based; conditions: antiserum Day 49; immunogen dose 20 μg
[7] = test system: Coiled-Coil Strep Antigen (Strep-BSA coating antigen); type: in vivo, Balb/c mice; conditions: for Murine Sera (Day 49) OD 405 nm, Strep-BSA coating antigen: immunogen dose 20 μg
[8] = test system: Streptococcus pneumoniae serotype 1; type: cell-based; conditions: antiserum Day 49; immunogen dose 20 μg
[9] = test system: Coiled-Coil Strep Antigen; test: Isotyping ELISA of mouse serum antibodies after i.p. immunization; type: in vivo, Balb/c mice; conditions: immunogen dose 20 μg

Acetyl-CN1eGEIEALKKKIEELSDKIDELEKEIK-amide [CVX0270]
stability in thermal denaturation experiment [1]: very stable | % of original helicity retained ([1]; at 75° C.): 77% | inhibition of anti-Strep serum binding (inhibition ELISA) [2]: significant inhibition | ratio of the molar ellipticity at 222 and 208 ([θ]222/[θ]208) ([3]; benign conditions): greater than 1.02 | conformation by CD under aqueous conditions ([3]; benign conditions (50 mM KH2PO4, 100 mM KCl, pH 7.0)): highly helical and found predominantly in the coiled-coil conformation | molar ellipticity at 222 nm ([θ]222) ([3]; benign conditions (50 mM KH2PO4, 100 mM KCl, pH 7.0), 20° C.): −29800 | helical content ([3]; benign conditions (50 mM KH2PO4, 100 mM KCl, pH 7.0), 20° C., versus theoretical [θ]222 −33900): 88% | helical content ([3]; in the presence of 50% TFE): 101%

CN1eG IEELEKK ITELKQK IDALENQ IHRLEQE IKELDES (C[Nle]GIEELEKKITELKQKIDALENQIHRLEQEIKELDES) [test peptide]
stability in thermal denaturation experiment [1]: much more stable than the native control | conformation by CD in benign buffer [3]: exists in helical form even in benign buffer

CN1eG LEEAEKK ATEAKQK VDALENQ VHRLEQE LKEIDES (C[Nle]GLEEAEKKATEAKQKVDALENQVHRLEQELKEIDES) [native control]
conformation by CD in benign buffer [3]: needs the presence of TFE to form a helical structure

EEESDKKDEEDAEKAE [Strep #2]
inhibition of anti-Strep serum binding (inhibition ELISA) [2]: no inhibition

EIEALKKKIEELSDKIDELEKEIK [Strep #1]
inhibition of anti-Strep serum binding (inhibition ELISA) [2]: Inhibition was also seen

TT: unconjugated tetanus toxoid carrier protein
reduction in colony forming units by antisera [4]: Little or no reduction in colony forming units | Percent Reduction of CFU Type 5 [5]: 7% | Percent Reduction of CFU Type 3 [6]: 6% | antibody titers to the Strep hapten ([7]; 20 μg, 10 μg and 5 μg doses): did not elicit any antibodies | Murine Sera (Day 49) OD 405 nm, Strep-BSA coating antigen ([7]; serum dilution 1:2000): 0.11 OD 405 nm | Murine Sera (Day 49) OD 405 nm, Strep-BSA coating antigen ([7]; serum dilution 1:4000): 0.04 OD 405 nm | Murine Sera (Day 49) OD 405 nm, Strep-BSA coating antigen ([7]; serum dilution 1:8000): 0.01 OD 405 nm | Murine Sera (Day 49) OD 405 nm, Strep-BSA coating antigen ([7]; serum dilution 1:16000): 0.06 OD 405 nm | Murine Sera (Day 49) OD 405 nm, Strep-BSA coating antigen ([7]; serum dilution 1:32000): 0.00 OD 405 nm | Murine Sera (Day 49) OD 405 nm, Strep-BSA coating antigen ([7]; serum dilution 1:64000): 0.00 OD 405 nm | Murine Sera (Day 49) OD 405 nm, Strep-BSA coating antigen ([7]; serum dilution 1:128000): 0.00 OD 405 nm | Murine Sera (Day 49) OD 405 nm, Strep-BSA coating antigen ([7]; serum dilution 1:256000): 0.00 OD 405 nm | Percent Reduction of CFU Type 1 [8]: 7% | Isotype IgG1 ([9]; sera day 6): 0.06 O.D. 405 nm | Isotype IgG2a ([9]; sera day 6): 0.02 O.D. 405 nm | Isotype IgG2b ([9]; sera day 6): 0.01 O.D. 405 nm | Isotype IgG3 ([9]; sera day 6): 0.01 O.D. 405 nm | Isotype IgG1 ([9]; sera day 14): 0.05 O.D. 405 nm | Isotype IgG2a ([9]; sera day 14): 0.00 O.D. 405 nm | Isotype IgG2b ([9]; sera day 14): 0.00 O.D. 405 nm | Isotype IgG3 ([9]; sera day 14): 0.01 O.D. 405 nm | Isotype IgG1 ([9]; sera day 35): 0.08 O.D. 405 nm | Isotype IgG2a ([9]; sera day 35): 0.01 O.D. 405 nm | Isotype IgG2b ([9]; sera day 35): 0.01 O.D. 405 nm | Isotype IgG3 ([9]; sera day 35): 0.01 O.D. 405 nm | Isotype IgG1 ([9]; sera day 49): 0.44 O.D. 405 nm | Isotype IgG2a ([9]; sera day 49): 0.03 O.D. 405 nm | Isotype IgG2b ([9]; sera day 49): 0.02 O.D. 405 nm | Isotype IgG3 ([9]; sera day 49): 0.05 O.D. 405 nm
